Experimental data taken from patent US10494363B2, “Non-steroidal glucocorticoid receptor modulators for local drug delivery” (LEO PHARMA A/S, priority 2015, dated 2019).

Experiments:
[1] = target: T1, glucocorticoid receptor (GR), recombinant full-length receptor protein (Homo sapiens, UniProt P04150); experiment: Glucocorticoid receptor binding assay (fluorescence polarization kit); conditions: 4 nM receptor, 2.5 nM Fluormone GS1 tracer, 2h room temperature, read-out: GR binding ABS IC50
T1 construct: 4 nM recombinant, full-length receptor protein was incubated with increasing concentrations of GR ligand; purchased Life Technologies A-15897
T1 sequence (P04150 1-777): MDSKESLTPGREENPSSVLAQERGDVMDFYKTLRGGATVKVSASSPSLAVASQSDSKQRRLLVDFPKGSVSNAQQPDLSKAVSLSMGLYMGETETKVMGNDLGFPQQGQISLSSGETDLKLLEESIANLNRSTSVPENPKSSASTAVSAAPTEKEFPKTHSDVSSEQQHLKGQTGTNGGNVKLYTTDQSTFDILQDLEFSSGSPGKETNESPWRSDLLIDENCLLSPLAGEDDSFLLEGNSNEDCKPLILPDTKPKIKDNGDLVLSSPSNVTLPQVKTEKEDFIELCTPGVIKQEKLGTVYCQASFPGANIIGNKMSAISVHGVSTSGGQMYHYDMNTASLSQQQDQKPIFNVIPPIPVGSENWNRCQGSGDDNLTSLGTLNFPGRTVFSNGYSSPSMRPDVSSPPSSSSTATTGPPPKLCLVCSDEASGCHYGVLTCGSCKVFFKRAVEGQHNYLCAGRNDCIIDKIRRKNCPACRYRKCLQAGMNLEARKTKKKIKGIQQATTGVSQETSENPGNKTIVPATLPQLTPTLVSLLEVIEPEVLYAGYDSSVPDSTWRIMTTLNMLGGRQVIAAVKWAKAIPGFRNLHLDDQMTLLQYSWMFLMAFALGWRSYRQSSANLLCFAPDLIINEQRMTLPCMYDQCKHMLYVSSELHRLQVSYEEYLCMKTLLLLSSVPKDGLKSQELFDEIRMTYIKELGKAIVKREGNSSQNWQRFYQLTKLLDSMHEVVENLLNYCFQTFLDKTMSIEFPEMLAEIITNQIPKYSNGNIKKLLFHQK
Procedure: Test compounds were diluted in DMSO over seven orders of magnitude, further diluted in assay buffer and distributed into 384-well plates. The sensitivity limit of this assay was 2-4 nM.
Data were processed by sigmoidal curve fitting.
Absolute (Abs) IC50 and Emax were determined from the curve fits.

[2] = Human liver microsomes (HLM) assay; type: in vitro ADME; conditions: hepatic extraction ratio; 0.5 μM compound, 0.5 mg/mL microsomes, NADPH, 37° C.
Method in brief: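 Compound at 0.5 μM incubated at 37° C. with human liver microsomes (0.5 mg/mL) and NADPH (1 mM) in phosphate buffer pH 7.4, 1% organic solvent; sampled 0-30 minutes. Clapp (mL/min/kg) and Eh (%) derived from depletion rate constant.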

[3] = test system: TNF alpha release from human PBMCs; experiment: Inhibition of TNF alpha release from human PBMCs; type: cell-based; conditions: LPS 1 μg/ml, 18 hours, AlphaLISA
Method in brief: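 Fresh or thawed PBMCs in serum-free medium with 0.5% HSA, stimulated with 1 μg/ml LPS plus titrated compound for 18 h at 37° C. TNF-a in supernatant by AlphaLISA; window set with a reference PDE4 inhibitor at 100×IC50. EC50 and Emax from sigmoidal fits.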

| Compound | IC50 [1] [nM] | HLM assay Eh (%) [2] | EC50 ([3]; PBMC) [nM] | EC50 [3] [nM] |
| --- | --- | --- | --- | --- |
| C[C@H](NC(=O)c1cnnn1C)[C@H](Oc1ccc(C(=O)O[C@H]2CCCN(C(=O)[C@H]3COC(=O)C3)C2)cc1)c1ccc(C2CC2)cc1 [Compound 38, [(3S)-1-[(3R)-5-oxotetrahydrofuran-3-carbonyl]-3-piperidyl] 4-[(1R,2S)-1-(4-cyclopropylphenyl)-2-[(3-methyltriazole-4-carbonyl)amino]propoxy]benzoate] | < 100 | * (extraction ratio (Eh)>90%) |  | 100 to 300 |
| Cc1cc(C(=O)N[C@@H](C)[C@H](Oc2ccc(C(=O)O[C@H]3CCCN(C(=O)[C@H]4COC(=O)C4)C3)cc2)c2ccc(C3CC3)cc2)on1 [Compound 41, [(3S)-1-[(3R)-5-oxotetrahydrofuran-3-carbonyl]-3-piperidyl] 4-[(1R,2S)-1-(4-cyclopropylphenyl)-2-[(3-methylisoxazole-5-carbonyl)amino]propoxy]benzoate] | < 100 | * (extraction ratio (Eh)>90%) | < 100 |  |
| Cc1nc(C(=O)N[C@@H](C)[C@H](Oc2ccc(C(=O)O[C@H]3CCCN(C(=O)[C@H]4COC(=O)C4)C3)cc2)c2ccc(C3CC3)cc2)no1 [Compound 42, [(3S)-1-[(3R)-5-oxotetrahydrofuran-3-carbonyl]-3-piperidyl] 4-[(1R,2S)-1-(4-cyclopropylphenyl)-2-[(5-methyl-1,2,4-oxadiazole-3-carbonyl)amino]propoxy]benzoate] | < 100 | * (extraction ratio (Eh)>90%) | < 100 |  |
| C[C@H](NC(=O)c1cn(C)cn1)[C@H](Oc1ccc(C(=O)O[C@H]2CCCN(C(=O)[C@H]3COC(=O)C3)C2)cc1)c1ccc(C2CC2)cc1 [Compound 43, [(3S)-1-[(3R)-5-oxotetrahydrofuran-3-carbonyl]-3-piperidyl] 4-[(1R,2S)-1-(4-cyclopropylphenyl)-2-[(1-methylimidazole-4-carbonyl)amino]propoxy]benzoate] | < 100 | * (extraction ratio (Eh)>90%) | < 100 |  |
| C[C@H](NC(=O)c1ccsn1)[C@H](Oc1ccc(C(=O)O[C@H]2CCCN(C(=O)[C@H]3COC(=O)C3)C2)cc1)c1ccc(C2CC2)cc1 [Compound 44, [(3S)-1-[(3R)-5-oxotetrahydrofuran-3-carbonyl]-3-piperidyl] 4-[(1R,2S)-1-(4-cyclopropylphenyl)-2-(isothiazole-3-carbonylamino)propoxy]benzoate] | < 100 | * (extraction ratio (Eh)>90%) | < 100 |  |
| Cc1nocc1C(=O)N[C@@H](C)[C@H](Oc1ccc(C(=O)O[C@H]2CCCN(C(=O)[C@H]3COC(=O)C3)C2)cc1)c1ccc(C2CC2)cc1 [Compound 45, [(3S)-1-[(3R)-5-oxotetrahydrofuran-3-carbonyl]-3-piperidyl] 4-[(1R,2S)-1-(4-cyclopropylphenyl)-2-[(3-methylisoxazole-4-carbonyl)amino]propoxy]benzoate] | < 100 | * (extraction ratio (Eh)>90%) | < 100 |  |
| C[C@H](NC(=O)c1nccs1)[C@H](Oc1ccc(C(=O)O[C@H]2CCCN(C(=O)[C@H]3COC(=O)C3)C2)cc1)c1ccc(C2CC2)cc1 [Compound 46, [(3S)-1-[(3R)-5-oxotetrahydrofuran-3-carbonyl]-3-piperidyl] 4-[(1R,2S)-1-(4-cyclopropylphenyl)-2-(thiazole-2-carbonylamino)propoxy]benzoate] | < 100 | ** (50%<extraction ratio (Eh)<90%) | < 100 |  |
| C[C@H](NC(=O)c1ccns1)[C@H](Oc1ccc(C(=O)O[C@H]2CCCN(C(=O)[C@H]3COC(=O)C3)C2)cc1)c1ccc(C2CC2)cc1 [Compound 47, [(3S)-1-[(3R)-5-oxotetrahydrofuran-3-carbonyl]-3-piperidyl] 4-[(1R,2S)-1-(4-cyclopropylphenyl)-2-(isothiazole-5-carbonylamino)propoxy]benzoate] | < 100 | * (extraction ratio (Eh)>90%) | < 100 |  |

The next lines start with results.

| IC50 [1] [nM] | HLM assay Eh (%) [2] | Compound | EC50 ([3]; PBMC) [nM] | EC50 [3] [nM] |
| --- | --- | --- | --- | --- |
| < 100 | * (extraction ratio (Eh)>90%) | Cc1ncoc1C(=O)N[C@@H](C)[C@H](Oc1ccc(C(=O)O[C@H]2CCCN(C(=O)[C@H]3COC(=O)C3)C2)cc1)c1ccc(C2CC2)cc1 [Compound 33, [(3S)-1-[(3R)-5-oxotetrahydrofuran-3-carbonyl]-3-piperidyl] 4-[(1R,2S)-1-(4-cyclopropylphenyl)-2-[(4-methyloxazole-5-carbonyl)amino]propoxy]benzoate] | 100 to 300 |  |
| < 100 | * (extraction ratio (Eh)>90%) | COCC(=O)N[C@@H](C)[C@H](Oc1ccc(C(=O)O[C@H]2CCCN(C(=O)[C@H]3COC(=O)C3)C2)cc1)c1ccc(C2CC2)cc1 [Compound 34, [(3S)-1-[(3R)-5-oxotetrahydrofuran-3-carbonyl]-3-piperidyl] 4-[(1R,2S)-1-(4-cyclopropylphenyl)-2-[(2-methoxyacetyl)amino]propoxy]benzoate] | < 100 |  |
| < 100 | * (extraction ratio (Eh)>90%) | C[C@H](NC(=O)c1ccnn1C)[C@H](Oc1ccc(C(=O)O[C@H]2CCCN(C(=O)[C@H]3COC(=O)C3)C2)cc1)c1ccc(C2CC2)cc1 [Compound 35, [(3S)-1-[(3R)-5-oxotetrahydrofuran-3-carbonyl]-3-piperidyl] 4-[(1R,2S)-1-(4-cyclopropylphenyl)-2-[(2-methylpyrazole-3-carbonyl)amino]propoxy]benzoate] | 100 to 300 |  |
| < 100 | * (extraction ratio (Eh)>90%) | Cc1ncc(C(=O)N[C@@H](C)[C@H](Oc2ccc(C(=O)O[C@H]3CCCN(C(=O)[C@H]4COC(=O)C4)C3)cc2)c2ccc(C3CC3)cc2)s1 [Compound 36, [(3S)-1-[(3R)-5-oxotetrahydrofuran-3-carbonyl]-3-piperidyl] 4-[(1R,2S)-1-(4-cyclopropylphenyl)-2-[(2-methylthiazole-5-carbonyl)amino]propoxy]benzoate] | < 100 |  |
| < 100 | * (extraction ratio (Eh)>90%) | C[C@H](NC(=O)[C@H]1CCCO1)[C@H](Oc1ccc(C(=O)O[C@H]2CCCN(C(=O)[C@H]3COC(=O)C3)C2)cc1)c1ccc(C2CC2)cc1 [Compound 37, [(3S)-1-[(3R)-5-oxotetrahydrofuran-3-carbonyl]-3-piperidyl] 4-[(1R,2S)-1-(4-cyclopropylphenyl)-2-[[(2R)-tetrahydrofuran-2-carbonyl]amino]propoxy]benzoate] | < 100 |  |
| < 100 | * (extraction ratio (Eh)>90%) | C[C@H](NC(=O)c1ncon1)[C@H](Oc1ccc(C(=O)O[C@H]2CCCN(C(=O)[C@H]3COC(=O)C3)C2)cc1)c1ccc(C2CC2)cc1 [Compound 39, [(3S)-1-[(3R)-5-oxotetrahydrofuran-3-carbonyl]-3-piperidyl] 4-[(1R,2S)-1-(4-cyclopropylphenyl)-2-(1,2,4-oxadiazole-3-carbonylamino)propoxy]benzoate] | < 100 |  |
| < 100 | * (extraction ratio (Eh)>90%) | C[C@H](NC(=O)c1nccn1C)[C@H](Oc1ccc(C(=O)O[C@H]2CCCN(C(=O)[C@H]3COC(=O)C3)C2)cc1)c1ccc(C2CC2)cc1 [Compound 40, [(3S)-1-[(3R)-5-oxotetrahydrofuran-3-carbonyl]-3-piperidyl] 4-[(1R,2S)-1-(4-cyclopropylphenyl)-2-[(1-methylimidazole-2-carbonyl)amino]propoxy]benzoate] | < 100 |  |
